According to ChEMBL document CHEMBL2074023, “Reversal of acquired resistance to doxorubicin in K562 human leukemia cells by astemizole” (Biol Pharm Bull, 2000):

Key:
[1] = molecular target: T1, ATP-dependent translocase ABCB1 (Homo sapiens, UniProt P08183); experiment: TP_TRANSPORTER: increase in Doxorubicin intracellular accumulation (Doxorubicin: 4 uM, Astemizole: 3 uM) in K562/DOX cells; assay type: functional, cell-based; settings: k562/adr
[2] = molecular target: T1, ATP-dependent translocase ABCB1; experiment: TP_TRANSPORTER: inhibition of Azidopine photoaffinity labelling (Azidopine: 0.1 uM, Astemizole: 10 uM) in membranes from K562/DOX cells; assay type: functional, cell membranes, Membrane; settings: k562/adr

T1 sequence (P08183 whole entry): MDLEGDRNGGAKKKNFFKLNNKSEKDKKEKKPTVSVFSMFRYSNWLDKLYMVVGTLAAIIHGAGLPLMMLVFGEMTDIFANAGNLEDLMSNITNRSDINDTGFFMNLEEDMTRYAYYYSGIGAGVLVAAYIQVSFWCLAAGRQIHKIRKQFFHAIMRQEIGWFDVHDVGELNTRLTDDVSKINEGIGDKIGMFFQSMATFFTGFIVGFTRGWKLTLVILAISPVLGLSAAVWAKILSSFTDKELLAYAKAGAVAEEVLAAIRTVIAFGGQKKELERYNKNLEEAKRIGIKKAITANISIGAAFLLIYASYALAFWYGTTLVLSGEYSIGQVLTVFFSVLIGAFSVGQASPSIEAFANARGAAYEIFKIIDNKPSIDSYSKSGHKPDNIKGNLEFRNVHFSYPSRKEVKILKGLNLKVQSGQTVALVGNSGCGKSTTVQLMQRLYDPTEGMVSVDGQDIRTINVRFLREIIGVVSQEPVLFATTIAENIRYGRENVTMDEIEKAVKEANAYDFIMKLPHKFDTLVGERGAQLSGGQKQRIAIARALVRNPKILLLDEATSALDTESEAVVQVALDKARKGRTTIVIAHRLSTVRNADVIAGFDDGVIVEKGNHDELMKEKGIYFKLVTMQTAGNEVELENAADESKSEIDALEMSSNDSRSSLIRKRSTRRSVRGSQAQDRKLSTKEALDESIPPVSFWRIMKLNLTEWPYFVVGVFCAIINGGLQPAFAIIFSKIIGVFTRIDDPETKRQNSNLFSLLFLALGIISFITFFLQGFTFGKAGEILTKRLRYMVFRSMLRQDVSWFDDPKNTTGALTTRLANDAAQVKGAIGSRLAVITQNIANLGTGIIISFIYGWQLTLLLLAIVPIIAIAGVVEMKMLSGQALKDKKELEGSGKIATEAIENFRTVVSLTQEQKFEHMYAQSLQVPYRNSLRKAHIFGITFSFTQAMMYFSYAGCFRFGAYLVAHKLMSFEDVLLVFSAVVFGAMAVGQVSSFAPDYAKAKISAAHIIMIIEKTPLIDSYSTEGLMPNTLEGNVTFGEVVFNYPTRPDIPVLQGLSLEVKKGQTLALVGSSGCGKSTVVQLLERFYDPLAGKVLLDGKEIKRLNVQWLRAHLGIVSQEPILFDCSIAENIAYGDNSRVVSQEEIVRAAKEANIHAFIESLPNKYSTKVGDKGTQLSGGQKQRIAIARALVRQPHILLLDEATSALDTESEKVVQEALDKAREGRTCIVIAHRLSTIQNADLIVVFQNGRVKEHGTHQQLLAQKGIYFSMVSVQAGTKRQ

Activity [1]: inhibitor [+] | Activity [2]: inhibitor [+]
Compound: COc1ccc(CCN2CCC(Nc3nc4ccccc4n3Cc3ccc(F)cc3)CC2)cc1 [ASTEMIZOLE]
